Assays:
Beta-galactosidase [1] = target: T1, Beta-galactosidase (Homo sapiens, UniProt P16278); assay: Inhibition of wild type beta-galactosidase activity in human peripheral blood mononuclear cell lysate (Example 3); assay type: biochemical
T1 construct: endogenous in cells; host or cells: human peripheral blood mononuclear cells (lysate)
T1 sequence (P16278 29-677): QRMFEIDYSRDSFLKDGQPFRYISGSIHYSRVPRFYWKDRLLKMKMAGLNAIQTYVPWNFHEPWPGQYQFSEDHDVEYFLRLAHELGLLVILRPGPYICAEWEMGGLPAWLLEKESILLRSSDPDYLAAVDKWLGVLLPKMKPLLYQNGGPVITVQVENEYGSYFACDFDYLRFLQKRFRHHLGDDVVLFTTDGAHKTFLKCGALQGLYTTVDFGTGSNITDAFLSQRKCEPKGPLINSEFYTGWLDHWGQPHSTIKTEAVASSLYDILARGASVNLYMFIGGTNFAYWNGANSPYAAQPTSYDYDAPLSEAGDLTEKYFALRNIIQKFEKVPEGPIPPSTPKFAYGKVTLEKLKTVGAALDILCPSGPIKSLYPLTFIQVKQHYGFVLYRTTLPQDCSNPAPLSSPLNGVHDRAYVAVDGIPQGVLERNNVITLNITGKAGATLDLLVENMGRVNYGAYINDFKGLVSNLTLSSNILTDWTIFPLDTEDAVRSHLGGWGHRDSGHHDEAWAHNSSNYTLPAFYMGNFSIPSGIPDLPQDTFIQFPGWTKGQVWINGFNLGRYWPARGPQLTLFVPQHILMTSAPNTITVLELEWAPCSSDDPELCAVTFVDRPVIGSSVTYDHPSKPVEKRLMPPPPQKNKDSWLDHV
Description: (§1) Samples of human peripheral blood mononuclear cell lysate (2 x 10^6 cells per assay) were incubated with graded concentrations of compound in 25 mM sodium phosphate, pH 7.3, supplemented with 0.5% Triton X-100 and protease inhibitors, and 0.8 mM of 4-methylumbelliferyl β-D-galactopyranoside. After an incubation of 2 hours at 37°C, the enzymatic reactions were stopped by the addition of 0.15 M glycine, pH 10.2, and fluorescence was measured at 445 nm using an excitation wavelength of 365 nm.

Beta-galactosidase [2] = target: T1, Beta-galactosidase; assay: Inhibition of wild type beta-galactosidase activity in human peripheral blood mononuclear cell lysate (Example 1); assay type: biochemical; settings: for IC50: human PBMC lysate, pH 7.3, 2 hours at 37°C
Description: as §1, with “compound N-nonyl-4-epi-isofagomine or 4-epi-isofagomine” for “compound”, “50” for “25”, “1%” for “0.5%”, “nm. The stock solutions of compound were at 20 mM in DMSO.” for “nm.”
The results obtained with N-nonyl-4-epi-isofagomine (squares), 4-epi-isofagomine (triangles) and DMSO vehicle (circles) are presented on figure 1.

[3] = system: mutated beta-galactosidase; assay: Increase of mutated beta-galactosidase activity in fibroblasts of GM1-gangliosidosis patients (Example 6); assay type: cell-based, human; settings: 4 days
Description: GM02439 and GM05335 fibroblasts (Coriell Institute) were cultured for 4 days in the presence or the absence of 2 µM of (2R,3R,4S,5R)-3-hydroxymethyl-2-pentylpiperidine-4,5-diol. Cells were lysed in 100 mM sodium citrate, pH 4.8, supplemented with 1% Triton X-100 and protease inhibitors. B eta-galactosidase and beta-hexosaminidase activities were then determined in the cell lysates using fluorescence and colorimetric assays, respectively. Results presented are means of 4 values obtained from independent cultures. […] Hatched and empty bars: beta-galactosidase and beta-hexosaminidase activities, respectively.

Beta-hexosaminidase [4] = assay: Beta-hexosaminidase activity in fibroblasts of GM1-gangliosidosis patients (Example 6); assay type: cell-based, human; settings: GM02439 and GM05335 fibroblasts, 2 µM, 4 days
Description: GM02439 and GM05335 fibroblasts (Coriell Institute) were cultured for 4 days in the presence or the absence of 2 µM of (2R,3R,4S,5R)-3-hydroxymethyl-2-pentylpiperidine-4,5-diol. Cells were lysed in 100 mM sodium citrate, pH 4.8, supplemented with 1% Triton X-100 and protease inhibitors. B eta-galactosidase and beta-hexosaminidase activities were then determined in the cell lysates using fluorescence and colorimetric assays, respectively. Results presented are means of 4 values obtained from independent cultures. Percent of deviation of each value is <30% from the mean. Hatched and empty bars: beta-galactosidase and beta-hexosaminidase activities, respectively.

Beta-galactosidase [5] = target: T1, Beta-galactosidase; assay: Glycosidase specificity panel, beta-galactosidase from PBMC lysate (Example 4); assay type: biochemical
Excerpt: (§2) IC50 values indicated in table 1 are the concentrations of (2R,3R,4S,5R)-3-hydroxymethyl-2-pentylpiperidine-4,5-diol compound required to inhibit by half the different enzymatic activities.

Alpha-glucosidase = assay: Glycosidase specificity panel (Example 4); assay type: biochemical, Human
Excerpt: as §2

Beta-glucosidase = assay: Glycosidase specificity panel (Example 4); assay type: biochemical, Human
Excerpt: as §2

Alpha-hexosaminidase = assay: Glycosidase specificity panel (Example 4); assay type: biochemical, Human
Excerpt: as §2

Beta-hexosaminidase [6] = assay: Glycosidase specificity panel (Example 4); assay type: biochemical, Human
Excerpt: as §2

Beta-galactosidase [7] = target: T1, Beta-galactosidase; assay: Prevention of heat denaturation of beta-galactosidase in PBMC lysate at 48°C (Example 5); assay type: biochemical
Excerpt: The capacity of a compound of protecting an enzyme from denaturation predicts to some extent its pharmacological chaperone activity, i.e. its capacity of restoring enzymatic activity in patient cells exposed to the compound. The Applicant has evaluated whether (2R,3R,4S,5R)-3-hydroxymethyl-2-pentylpiperidine-4,5-diol can prevent heat denaturation of human beta-galactosidase following a procedure described by Suzuki et al 2014.
Samples of human peripheral blood mononuclear cell lysate (2 x 10^6 cells) in phosphate buffer, pH 7.3, 0.5% Triton X-100 and protease inhibitors were incubated at 48°C for 0, 5, 10, 20, and 40 minutes in the presence of graded concentrations of (2R,3R,4S,5R)-3-hydroxymethyl-2-pentylpiperidine-4,5-diol. The samples were then diluted in citrate buffer, pH 4.3, and 0.25 mM of 4-methylumbelliferyl β-D-galactopyranoside. After an incubation of 17 hours at 37°C, the reaction was stopped by the addition of glycine 0.15 M, pH 10.2. Fluorescence was determined at 445 nm using an excitation wavelength at 365 nm. The tested concentrations of (2R,3R,4S,5R)-3-hydroxymethyl-2-pentylpiperidine-4,5-diol, are 20 µM (square), 2 µM (triangle), 0.2 µM (diamond), 0.02 µM (circle) and 0 µM (line).

Beta-glucuronidase = target: T2, Beta-glucuronidase (Homo sapiens, UniProt P08236); assay: Glycosidase specificity panel (Example 4); assay type: biochemical
T2 sequence (P08236 23-651): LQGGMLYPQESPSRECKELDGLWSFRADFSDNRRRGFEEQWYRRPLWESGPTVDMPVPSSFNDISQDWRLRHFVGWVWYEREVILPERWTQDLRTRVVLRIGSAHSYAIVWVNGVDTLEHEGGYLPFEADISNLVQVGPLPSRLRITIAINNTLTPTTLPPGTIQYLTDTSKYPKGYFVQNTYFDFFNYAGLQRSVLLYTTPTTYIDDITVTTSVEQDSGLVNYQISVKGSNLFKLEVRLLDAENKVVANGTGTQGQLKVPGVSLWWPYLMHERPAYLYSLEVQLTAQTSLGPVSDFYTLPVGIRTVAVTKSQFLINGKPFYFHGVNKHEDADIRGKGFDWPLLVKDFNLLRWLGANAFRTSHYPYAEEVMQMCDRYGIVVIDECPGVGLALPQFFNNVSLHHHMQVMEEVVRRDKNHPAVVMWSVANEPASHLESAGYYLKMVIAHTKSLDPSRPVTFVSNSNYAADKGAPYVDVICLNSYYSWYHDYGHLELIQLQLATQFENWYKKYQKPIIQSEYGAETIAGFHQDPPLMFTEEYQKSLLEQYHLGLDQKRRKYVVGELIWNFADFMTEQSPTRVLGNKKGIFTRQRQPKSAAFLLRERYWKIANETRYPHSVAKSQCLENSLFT
Excerpt: as §2

Alpha-galactosidase = target: T3, Alpha-galactosidase (Homo sapiens, UniProt P06280); assay: Glycosidase specificity panel (Example 4); assay type: biochemical
T3 sequence (P06280 32-429): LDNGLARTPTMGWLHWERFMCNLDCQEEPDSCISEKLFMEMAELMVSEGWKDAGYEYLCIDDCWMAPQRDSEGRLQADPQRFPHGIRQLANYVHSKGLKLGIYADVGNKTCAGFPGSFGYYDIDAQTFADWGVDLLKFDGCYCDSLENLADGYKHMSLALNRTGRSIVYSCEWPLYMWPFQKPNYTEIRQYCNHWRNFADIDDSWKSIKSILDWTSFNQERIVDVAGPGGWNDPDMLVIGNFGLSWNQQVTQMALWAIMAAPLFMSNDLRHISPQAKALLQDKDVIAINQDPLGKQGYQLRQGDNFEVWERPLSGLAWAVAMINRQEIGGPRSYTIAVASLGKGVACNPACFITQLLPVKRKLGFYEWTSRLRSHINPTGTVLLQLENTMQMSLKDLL
Excerpt: as §2

[8] = human PBMC lysate, pH 7.3, 2 hours at 37°C, Example 3, read-out: IC50

Q: For `CCCCCC1NCC(O)[C@@H](O)[C@H]1CO` (stereo in doubt) [(2R,3R,4S,5S)-3-hydroxymethyl-2-pentylpiperidine-4,5-diol], which “fold less potent than (2R,3R,4S,5R) isomer” value (Beta-galactosidase [1]; Example 3) is on record?
A: 150 fold

Q: And the IC50 (Beta-galactosidase [1]; [8])?
A: 1.5 µM

Q: For `OC[C@H]1CNC[C@@H](O)[C@H]1O` [4-epi-isofagomine], which IC50 (Beta-galactosidase [2]) is on record?
A: 0.07 µM

Q: And the IC50 (Beta-galactosidase [1])?
A: 0.8 µM

Q: Which “increase of mutated beta-galactosidase activity relative to untreated cells” value ([3]; infantile GM1-gangliosidosis cell line GM05335, 2 µM) does the source give for `CCCCC[C@H]1NC[C@@H](O)[C@@H](O)[C@H]1CO` [(2R,3R,4S,5R)-3-Hydroxymethyl-2-pentylpiperidine-4,5-diol] here?
A: 19 fold

Q: And the “increase of mutated beta-galactosidase activity relative to untreated cells” value ([3]; juvenile GM1-gangliosidosis cell line GM02439, 2 µM)?
A: 6.5 fold

Q: What about the “increase of the beta-hexosaminidase activity” value (Beta-hexosaminidase [4]) of the same compound?
A: no increase

Q: And the IC50 (Beta-galactosidase [5])?
A: 0.02 µM

Q: What about the IC50 (Alpha-glucosidase) of the same compound?
A: > 160 µM

Q: And the IC50 (Beta-glucosidase)?
A: 60 µM

Q: What about the IC50 (Alpha-hexosaminidase) of the same compound?
A: > 160 µM

Q: What about the IC50 (Beta-hexosaminidase [6]) of the same compound?
A: > 160 µM

Q: What about the activity at 0.02 µM (Beta-galactosidase [7]; 0 minute) of the same compound?
A: 100%

Q: What about the activity at 0.02 µM (Beta-galactosidase [7]; 5 minutes) of the same compound?
A: 70%

Q: And the activity at 0.02 µM (Beta-galactosidase [7]; 10 minutes)?
A: 46%

Q: And the activity at 0.02 µM (Beta-galactosidase [7]; 20 minutes)?
A: 23%

Q: And the activity at 0.02 µM (Beta-galactosidase [7]; 40 minutes)?
A: 11%

Q: What about the activity at 0.2 µM (Beta-galactosidase [7]; 0 minute) of the same compound?
A: 100%

Q: What about the activity at 0.2 µM (Beta-galactosidase [7]; 5 minutes) of the same compound?
A: 81%

Q: And the activity at 0.2 µM (Beta-galactosidase [7]; 10 minutes)?
A: 72%

Q: What about the activity at 0.2 µM (Beta-galactosidase [7]; 20 minutes) of the same compound?
A: 56%

Q: What about the activity at 0.2 µM (Beta-galactosidase [7]; 40 minutes) of the same compound?
A: 33%

Q: And the “time to loss of 50% of the beta-galactosidase activity” value (Beta-galactosidase [7]; 2 µM)?
A: > 40 min

Q: What about the activity at 2 µM (Beta-galactosidase [7]; 2 µM, 0 minute) of the same compound?
A: 100%

Q: And the activity at 2 µM (Beta-galactosidase [7]; 2 µM, 5 minutes)?
A: 82%

Q: And the activity at 2 µM (Beta-galactosidase [7]; 2 µM, 10 minutes)?
A: 84%

Q: And the activity at 2 µM (Beta-galactosidase [7]; 2 µM, 20 minutes)?
A: 73%

Q: And the activity at 2 µM (Beta-galactosidase [7]; 2 µM, 40 minutes)?
A: 70%

Q: What about the “time to loss of 50% of the beta-galactosidase activity” value (Beta-galactosidase [7]; 20 µM) of the same compound?
A: > 40 min

Q: And the activity at 20 µM (Beta-galactosidase [7]; 20 µM, 0 minute)?
A: 100%

Q: What about the activity at 20 µM (Beta-galactosidase [7]; 20 µM, 5 minutes) of the same compound?
A: 93%

Q: What about the activity at 20 µM (Beta-galactosidase [7]; 20 µM, 10 minutes) of the same compound?
A: 95%

Q: What about the activity at 20 µM (Beta-galactosidase [7]; 20 µM, 20 minutes) of the same compound?
A: 85%

Q: What about the activity at 20 µM (Beta-galactosidase [7]; 20 µM, 40 minutes) of the same compound?
A: 87%

Q: What about the IC50 (Beta-glucuronidase) of the same compound?
A: > 160 µM

Q: And the IC50 (Alpha-galactosidase)?
A: 150 µM

Q: And the IC50 (Beta-galactosidase [1]; [8])?
A: 0.01 µM

Q: Which results are given for `CCCCCCCCCN1CC(O)C(O)C(CO)C1` (stereo not drawn) [N-nonyl-4-epi-isofagomine]?
A: fold less inhibitory on human beta-galactosidase than 4-epi-isofagomine (Beta-galactosidase [2]): 140 fold; IC50 (Beta-galactosidase [2]): 10 µM
